Data on 53 compounds can be found in patent US20160052937A1, “Tetrahydroimidazo[1,5-d][1,4]oxazepine compound” (Eisai R&D Management Co., Ltd., priority 2014, published 2016).

The test deals with T1, human metabotropic glutamate receptor 2 (mGluR2) (Homo sapiens, UniProt Q14416).
T1 construct: expressed in transfected cells; co-expressing human SLC1A3), cell membrane fraction
Put plainly: [35S]GTPγS binding assay (Affinity to mGluR2). It is filed as biochemical. The settings on record: cell membrane fraction of HEK293 cells stably expressing human mGluR2; glutamic acid 10 μM. As for the experimental part: (Preparation of Cell Membrane Fraction of HEK293 Cells Stably Expressing Human Metabotropic Glutamate Receptor 2 (mGluR2))
HEK293 cells stably expressing human mGluR2 and human glutamate transporter SLC1A3 were cultured in a Dulbecco's modified Eagle's medium with 10% fetal bovine serum (50 units/mL of penicillin, 50 μg/mL of streptomycin, 60 μg/mL of geneticin, 400 μg/mL of hygromycin B and 2 mM of glutamine) at 37° C. under 5% CO2. Confluent cell cultures were washed twice with PBS(−), and then scraped off with a cell scraper, and subjected to centrifugal separation at 4° C. and 1500 rpm for 5 minutes for collecting cells. The centrifuged sediment (cell pellet) was homogenized in a 20 mM HEPES buffer containing 10 mM EDTA (pH 7.4) by using sonicator and centrifuged at 4° C. and 1500×g for 30 minutes. The supernatant (soluble fraction) was subjected to the centrifugal separation at 4° C. and 40,000×g for 30 minutes, and thus, insoluble fraction was obtained. After additional centrifugally washing the obtained fraction with 20 mM HEPES buffer containing 10 mM EDTA (pH 7.4), the pellet was centrifugally suspended with a 20 mM HEPES buffer containing 0.1 mM EDTA, and the cell membrane fraction was obtained by the centrifugal separation at 4° C. and 40,000×g for 30 minutes. The thus obtained cell membrane fraction was suspended in a 20 mM HEPES buffer containing 0.1 mM EDTA in a protein concentration of 3 mg/mL, which was stored at −80° C.
([^35S]GTPγS binding assay)
The frozen cell membrane fraction prepared as described above was thawed before use, and the resultant was diluted with a buffer for a binding assay (final concentrations: 20 mM HEPES, 100 mM NaCl, 1 mM MgCl2, 3 μM GDP, 300 μg/mL saponin, 0.1% BSA). The compound of each example was added to a cell membrane fraction containing 1.8 to 3 μg/assay of membrane protein on a plate, followed by incubation at room temperature for 30 minutes. Thereafter, with glutamic acid (in a final concentration of 10 μM) added thereto, incubation was performed at room temperature for 15 minutes, and thereafter, [^35S]GTPγS (in a final concentration of 0.8 kBq) and 588 μg WGA-SPA beads were added thereto, followed by incubation at room temperature for 1 hour. After the incubation, the plate was subjected to the centrifugal separation at 2,500 rpm and room temperature, and then, membrane cell binding radioactivity was measured with a top count.
A [^35S]GTPγS binding amount obtained by performing the above-described reaction in the absence of glutamic acid was defined as nonspecific binding, and a difference from a [^35S]GTPγS binding amount obtained in the presence of glutamic acid was defined as specific binding. On the basis of ratios of inhibiting the specific binding at various concentrations of the compounds of the respective examples, inhibition curves were obtained. Concentrations of the compounds of the respective examples at which the specific [^35S]GTPγS binding amount was suppressed by 50% (IC50 values) were calculated on the basis of the inhibition curves and shown in Table 3.
In general terms: GTPγS is a poorly hydrolysed GTP analogue; its binding reports G protein activation.

T1 sequence (Q14416 19-872): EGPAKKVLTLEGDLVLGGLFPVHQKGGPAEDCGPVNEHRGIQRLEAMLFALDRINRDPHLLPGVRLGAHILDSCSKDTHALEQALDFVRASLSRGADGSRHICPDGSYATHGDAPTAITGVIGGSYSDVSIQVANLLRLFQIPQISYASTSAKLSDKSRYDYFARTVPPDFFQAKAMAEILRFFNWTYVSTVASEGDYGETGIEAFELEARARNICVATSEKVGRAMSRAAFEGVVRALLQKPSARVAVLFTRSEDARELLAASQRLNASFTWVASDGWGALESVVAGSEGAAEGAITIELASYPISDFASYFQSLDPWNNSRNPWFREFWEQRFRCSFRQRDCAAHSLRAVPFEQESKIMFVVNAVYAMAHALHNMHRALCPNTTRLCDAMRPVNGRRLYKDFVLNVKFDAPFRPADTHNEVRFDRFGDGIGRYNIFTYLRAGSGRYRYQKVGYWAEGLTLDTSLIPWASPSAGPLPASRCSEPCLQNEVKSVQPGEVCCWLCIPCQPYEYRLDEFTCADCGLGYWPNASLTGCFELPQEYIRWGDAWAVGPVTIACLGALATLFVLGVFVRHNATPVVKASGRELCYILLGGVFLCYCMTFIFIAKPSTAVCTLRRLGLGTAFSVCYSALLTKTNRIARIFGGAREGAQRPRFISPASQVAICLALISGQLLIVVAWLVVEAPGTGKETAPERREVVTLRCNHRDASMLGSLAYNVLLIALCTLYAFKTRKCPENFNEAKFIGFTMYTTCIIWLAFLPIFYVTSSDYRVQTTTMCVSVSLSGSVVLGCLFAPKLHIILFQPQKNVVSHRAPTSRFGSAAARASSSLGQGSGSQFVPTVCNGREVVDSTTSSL

Usually IC50 stands for the concentration that inhibits the measured activity by half. High values mean lower potency, low ones higher potency. As for `CC(C)NS(=O)(=O)c1ccc(-c2nc(-c3ccc(OCF)cc3)n3c2CCO[C@H](C)C3)cc1` [Example 4], the IC50 came to 3.3 nM.
Next, `C[C@@H]1Cn2c(-c3ccc(OCF)cc3)nc(-c3ccc(S(=O)(=O)NC(C)(C)C)cc3)c2CCO1` [Example 5]: 2.7 nM.
Compound `CCOc1ccc(-c2nc(-c3ccc(S(=O)(=O)NC(C)C)cc3)c3n2C[C@@H](C)OCC3)cc1` [Example 6] showed an IC50 of 3.2 nM.
In the case of `CCOc1ccc(-c2nc(-c3ccc(S(=O)(=O)NC(C)(C)C)cc3)c3n2C[C@@H](C)OCC3)cc1` [Example 7], the IC50 turned out to be 3.6 nM.
For `C[C@@H]1Cn2c(-c3ccc(OC(F)F)cc3)nc(-c3ccc(S(=O)(=O)NC(C)(C)C)cc3)c2CCO1` [Example 9], the IC50 came out at 2.7 nM.
`COc1ccc(-c2nc(-c3ccc(S(=O)(=O)NC(C)(C)C)cc3)c3n2C[C@@H](C)OCC3)cc1` [Example 10] came in with an IC50 of 1.8 nM.
Then `CC(C)NS(=O)(=O)c1ccc(-c2nc(-c3ccc(OC4COC4)cc3)n3c2CCOC(C)C3)cc1` (centres unmarked) [Example 11], with 7.1 nM; and `CC(C)NS(=O)(=O)c1ccc(-c2nc(-c3ccc(OC(F)F)cc3)n3c2CCO[C@H](C)C3)cc1` [Example 12], with 1.4 nM; and `C[C@@H]1Cn2c(-c3ccc(F)cc3)nc(-c3ccc(S(=O)(=O)NC(C)(C)C)cc3)c2CCO1` [Example 13], with 4 nM.
Next, `CNS(=O)(=O)c1ccc(-c2nc(-c3ccc(F)cc3)n3c2CCO[C@H](C)C3)cc1` [Example 14]: 9.8 nM; `CCNS(=O)(=O)c1ccc(-c2nc(-c3ccc(F)cc3)n3c2CCO[C@H](C)C3)cc1` [Example 15]: 4.1 nM; `C[C@@H]1Cn2c(-c3ccc(F)cc3)nc(-c3ccc(S(=O)(=O)NC4CC4)cc3)c2CCO1` [Example 16]: 4.2 nM.
Next, `CC1Cn2c(-c3ccc(F)cc3)nc(-c3ccc(S(=O)(=O)NC4(C)CCC4)cc3)c2CCO1` (centres unmarked) [Example 17]: 2.3 nM; `C[C@@H]1Cn2c(-c3ccc(OCF)cc3)nc(-c3ccc(S(=O)(=O)NC4CC4)cc3)c2CCO1` [Example 18]: 3.6 nM; `C[C@@H]1Cn2c(-c3ccc(OCF)cc3)nc(-c3ccc(S(=O)(=O)NC4CCC4)cc3)c2CCO1` [Example 19]: 6.3 nM.
In turn, `CNS(=O)(=O)c1ccc(-c2nc(-c3ccc(OCF)cc3)n3c2CCO[C@H](C)C3)cc1` [Example 20] displayed an IC50 of 21.8 nM.
Then `CCNS(=O)(=O)c1ccc(-c2nc(-c3ccc(OCF)cc3)n3c2CCO[C@H](C)C3)cc1` [Example 21], with 11.2 nM.
Then `CC1Cn2c(-c3ccc(OCF)cc3)nc(-c3ccc(S(=O)(=O)NC4(C)CCC4)cc3)c2CCO1` (centres unmarked) [Example 22], with 3.1 nM; and `C[C@@H]1Cn2c(-c3ccc(OC(F)F)cc3)nc(-c3ccc(S(=O)(=O)NC4CC4)cc3)c2CCO1` [Example 23], with 1.6 nM; and `C[C@@H]1Cn2c(-c3ccc(OC(F)F)cc3)nc(-c3ccc(S(=O)(=O)NC4CCC4)cc3)c2CCO1` [Example 24], with 2.7 nM.
Then `CNS(=O)(=O)c1ccc(-c2nc(-c3ccc(OC(F)F)cc3)n3c2CCO[C@H](C)C3)cc1` [Example 25], with 3.1 nM; and `CCNS(=O)(=O)c1ccc(-c2nc(-c3ccc(OC(F)F)cc3)n3c2CCO[C@H](C)C3)cc1` [Example 26], with 3.7 nM; and `CC1Cn2c(-c3ccc(OC(F)F)cc3)nc(-c3ccc(S(=O)(=O)NC4(C)CCC4)cc3)c2CCO1` (centres unmarked) [Example 27], with 2.3 nM.
Compound `COc1ccc(-c2nc(-c3ccc(S(=O)(=O)NC4CC4)cc3)c3n2C[C@@H](C)OCC3)cc1` [Example 28] gave an IC50 of 7.4 nM.
In turn, `CNS(=O)(=O)c1ccc(-c2nc(-c3ccc(OC)cc3)n3c2CCO[C@H](C)C3)cc1` [Example 29] showed an IC50 of 26.8 nM.
Next, `CCNS(=O)(=O)c1ccc(-c2nc(-c3ccc(OC)cc3)n3c2CCO[C@H](C)C3)cc1` [Example 30]: 7.4 nM; `COc1ccc(-c2nc(-c3ccc(S(=O)(=O)NC4(C)CCC4)cc3)c3n2CC(C)OCC3)cc1` (centres unmarked) [Example 31]: 3 nM; `CCOc1ccc(-c2nc(-c3ccc(S(=O)(=O)NC4CC4)cc3)c3n2C[C@@H](C)OCC3)cc1` [Example 32]: 3.9 nM.
Next, `CCOc1ccc(-c2nc(-c3ccc(S(=O)(=O)NC4CCC4)cc3)c3n2C[C@@H](C)OCC3)cc1` [Example 33]: 3 nM.
Next, `CCOc1ccc(-c2nc(-c3ccc(S(=O)(=O)NC)cc3)c3n2C[C@@H](C)OCC3)cc1` [Example 34]: 7 nM; `CCNS(=O)(=O)c1ccc(-c2nc(-c3ccc(OCC)cc3)n3c2CCO[C@H](C)C3)cc1` [Example 35]: 1.8 nM; `CCOc1ccc(-c2nc(-c3ccc(S(=O)(=O)NC4(C)CCC4)cc3)c3n2C[C@@H](C)OCC3)cc1` [Example 36]: 1.3 nM.
Compound `C[C@@H]1Cn2c(-c3ccc(F)cc3)nc(-c3ccc(S(=O)(=O)NC4CCC4)cc3)c2CCO1` [Example 37] had an IC50 of 2.3 nM.
Then `O=S(=O)(NC1CCC1)c1ccc(-c2nc(-c3ccc(F)cc3)n3c2CCO[C@H](CF)C3)cc1` [Example 38], with 2.2 nM; and `CC1(NS(=O)(=O)c2ccc(-c3nc(-c4ccc(F)cc4)n4c3CCO[C@H](CF)C4)cc2)CCC1` [Example 39], with 0.9 nM.
Then `CC(C)NS(=O)(=O)c1ccc(-c2nc(-c3ccc(F)cc3)n3c2CCO[C@H](CF)C3)cc1` [Example 40], with 2.6 nM; and `CC(C)(C)NS(=O)(=O)c1ccc(-c2nc(-c3ccc(F)cc3)n3c2CCO[C@H](CF)C3)cc1` [Example 41], with 2.1 nM.
Next, `CCNS(=O)(=O)c1ccc(-c2nc(-c3ccc(F)cc3)n3c2CCO[C@H](CF)C3)cc1` [Example 42]: 9.8 nM.
In turn, `COc1ccc(-c2nc(-c3ccc(S(=O)(=O)NC(C)C)cc3)c3n2C[C@@H](CF)OCC3)cc1` [Example 43] gave an IC50 of 3.1 nM.
Next, `COc1ccc(-c2nc(-c3ccc(S(=O)(=O)NC4CCC4)cc3)c3n2C[C@@H](CF)OCC3)cc1` [Example 44]: 2.3 nM; `COc1ccc(-c2nc(-c3ccc(S(=O)(=O)NC4(C)CCC4)cc3)c3n2C[C@@H](CF)OCC3)cc1` [Example 45]: 2.2 nM; `CCNS(=O)(=O)c1ccc(-c2nc(-c3ccc(OC)cc3)n3c2CCO[C@H](CF)C3)cc1` [Example 46]: 6 nM.
On to `COc1ccc(-c2nc(-c3ccc(S(=O)(=O)NC4CC4)cc3)c3n2C[C@@H](CF)OCC3)cc1` [Example 47], for which the IC50 is 6.3 nM.
Then `CCOc1ccc(-c2nc(-c3ccc(S(=O)(=O)NC4CC4)cc3)c3n2C[C@@H](CF)OCC3)cc1` [Example 49], with 11.2 nM.
Next, `CCNS(=O)(=O)c1ccc(-c2nc(-c3ccc(OCC)cc3)n3c2CCO[C@H](CF)C3)cc1` [Example 50]: 9.5 nM.
Next, `CC(C)NS(=O)(=O)c1ccc(-c2nc(-c3ccc(OCF)cc3)n3c2CCO[C@H](CF)C3)cc1` [Example 51]: 11.9 nM.
The compound `CC(C)(C)NS(=O)(=O)c1ccc(-c2nc(-c3ccc(OCF)cc3)n3c2CCO[C@H](CF)C3)cc1` [Example 52] gave an IC50 of 4.1 nM.
`CC(C)NS(=O)(=O)c1ccc(-c2nc(-c3ccc(OC(F)F)cc3)n3c2CCO[C@H](CF)C3)cc1` [Example 53] displayed an IC50 of 4.7 nM.
`CC(C)(C)NS(=O)(=O)c1ccc(-c2nc(-c3ccc(OC(F)F)cc3)n3c2CCO[C@H](CF)C3)cc1` [Example 54] gave an IC50 of 4.9 nM.
`CCOc1ccc(-c2nc(-c3ccc(S(=O)(=O)NC(C)(C)C)cc3)c3n2C[C@@H](CF)OCC3)cc1` [Example 55]: the IC50 amounted to 2.9 nM.
Next, `CCNS(=O)(=O)c1ccc(-c2nc(-c3ccc(OCF)cc3)n3c2CCO[C@H](CF)C3)cc1` [Example 56]: 10.7 nM; `CC1(NS(=O)(=O)c2ccc(-c3nc(-c4ccc(OCF)cc4)n4c3CCO[C@H](CF)C4)cc2)CCC1` [Example 57]: 4.1 nM; `O=S(=O)(NC1CCC1)c1ccc(-c2nc(-c3ccc(OCF)cc3)n3c2CCO[C@H](CF)C3)cc1` [Example 58]: 15.3 nM.
